Assay results from publication PMC5290327, “SC83288 is a clinical development candidate for the treatment of severe malaria” (Nature Communications, 2017).

What was measured:
Assay in all cases: KINOMEscan
Type in all cases: binding
Conditions in all cases: read-out: Remaining enzyme activity
YANK2 = molecular target: T1, YANK2 (Homo sapiens, UniProt Q9NY57)
T1 construct: purchased Ambit (DiscoverX) KINOMEscan; Cerep
Procedure, shortened: (§1)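 qPCR of a DNA tag reports how much kinase stays bound to ligand-coated beads in the presence of 10 μM SC81458, diluted from a DMSO stock. Kinase sources were T7 phage lysates from E. coli or HEK-293-expressed protein tagged with DNA.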

PCTk3 = molecular target: T2, PCTk3 (Homo sapiens, UniProt Q07002)
T2 construct: purchased Ambit (DiscoverX) KINOMEscan; Cerep
Procedure, shortened: as §1

VEGFR2 = molecular target: T3, VEGFR2 (Homo sapiens, UniProt P35968)
T3 construct: purchased Ambit (DiscoverX) KINOMEscan; Cerep
Procedure, shortened: as §1

MKNK1 = molecular target: T4, MKNK1 (Homo sapiens, UniProt Q9BUB5)
T4 construct: purchased Ambit (DiscoverX) KINOMEscan; Cerep
Procedure, shortened: as §1

DYRK2 = molecular target: T5, DYRK2 (Homo sapiens, UniProt Q92630)
T5 construct: purchased Ambit (DiscoverX) KINOMEscan; Cerep
Procedure, shortened: as §1

RIOK3 = molecular target: T6, RIOK3 (Homo sapiens, UniProt O14730)
T6 construct: purchased Ambit (DiscoverX) KINOMEscan; Cerep
Procedure, shortened: as §1

ACVRL1 = molecular target: T7, ACVRL1 (Homo sapiens, UniProt P37023)
T7 construct: purchased Ambit (DiscoverX) KINOMEscan; Cerep
Procedure, shortened: as §1

LATS1 = molecular target: T8, LATS1 (Homo sapiens, UniProt O95835)
T8 construct: purchased Ambit (DiscoverX) KINOMEscan; Cerep
Procedure, shortened: as §1

NDR2 = molecular target: T9, NDR2 (Homo sapiens, UniProt Q9Y2H1)
T9 construct: purchased Ambit (DiscoverX) KINOMEscan; Cerep
Procedure, shortened: as §1

ERBB3 = molecular target: T10, ERBB3 (Homo sapiens, UniProt P21860)
T10 construct: purchased Ambit (DiscoverX) KINOMEscan; Cerep
Procedure, shortened: as §1

PIK3Cb = molecular target: T11, PIK3Cb (Homo sapiens, UniProt P42338)
T11 construct: purchased Ambit (DiscoverX) KINOMEscan; Cerep
Procedure, shortened: as §1

LZK = molecular target: T12, LZK (Homo sapiens, UniProt O43283)
T12 construct: purchased Ambit (DiscoverX) KINOMEscan; Cerep
Procedure, shortened: as §1

BMPR1b = molecular target: T13, BMPR1b (Homo sapiens, UniProt O00238)
T13 construct: purchased Ambit (DiscoverX) KINOMEscan; Cerep
Procedure, shortened: as §1

CSNK2a1 = molecular target: T14, CSNK2a1 (Homo sapiens, UniProt P68400)
T14 construct: purchased Ambit (DiscoverX) KINOMEscan; Cerep
Procedure, shortened: as §1

MAP3K3 = molecular target: T15, MAP3K3 (Homo sapiens, UniProt Q99759)
T15 construct: purchased Ambit (DiscoverX) KINOMEscan; Cerep
Procedure, shortened: as §1

EPHA5 = molecular target: T16, EPHA5 (Homo sapiens, UniProt P54756)
T16 construct: purchased Ambit (DiscoverX) KINOMEscan; Cerep
Procedure, shortened: as §1

ERK3 = molecular target: T17, ERK3 (Homo sapiens, UniProt Q16659)
T17 construct: purchased Ambit (DiscoverX) KINOMEscan; Cerep
Procedure, shortened: as §1

MAK = molecular target: T18, MAK (Homo sapiens, UniProt P20794)
T18 construct: purchased Ambit (DiscoverX) KINOMEscan; Cerep
Procedure, shortened: as §1

PIK3CA(E545K) = molecular target: T19, PIK3CA(E545K) (Homo sapiens, UniProt P42336, E545K)
T19 construct: purchased Ambit (DiscoverX) KINOMEscan; Cerep
Procedure, shortened: as §1

DCAMKL3 = molecular target: T20, DCAMKL3 (Homo sapiens, UniProt Q9C098)
T20 construct: purchased Ambit (DiscoverX) KINOMEscan; Cerep
Procedure, shortened: as §1

PRKCQ = molecular target: T21, PRKCQ (Homo sapiens, UniProt Q04759)
T21 construct: purchased Ambit (DiscoverX) KINOMEscan; Cerep
Procedure, shortened: as §1

TXK = molecular target: T22, TXK (Homo sapiens, UniProt P42681)
T22 construct: purchased Ambit (DiscoverX) KINOMEscan; Cerep
Procedure, shortened: as §1

[1] = molecular target: T23, RPS6KA5(Kin.Dom.2-C-term) (Homo sapiens, UniProt O75582)
T23 construct: RPS6KA5(Kin.Dom.2-C-term); purchased Ambit (DiscoverX) KINOMEscan; Cerep
Procedure, shortened: as §1

[2] = molecular target: T24, JAK2(JH1domain-catalytic) (Homo sapiens, UniProt O60674)
T24 construct: JAK2(JH1domain-catalytic); purchased Ambit (DiscoverX) KINOMEscan; Cerep
Procedure, shortened: as §1

[3] = molecular target: T25, JAK1(JH2domain-pseudokinase) (Homo sapiens, UniProt P23458)
T25 construct: JAK1(JH2domain-pseudokinase); purchased Ambit (DiscoverX) KINOMEscan; Cerep
Procedure, shortened: as §1

MKNK2 = molecular target: T26, MKNK2 (Homo sapiens, UniProt Q9HBH9)
T26 construct: purchased Ambit (DiscoverX) KINOMEscan; Cerep
Procedure, shortened: as §1

MEK2 = molecular target: T27, MEK2 (Homo sapiens, UniProt P36507)
T27 construct: purchased Ambit (DiscoverX) KINOMEscan; Cerep
Procedure, shortened: as §1

TLK2 = molecular target: T28, TLK2 (Homo sapiens, UniProt Q86UE8)
T28 construct: purchased Ambit (DiscoverX) KINOMEscan; Cerep
Procedure, shortened: as §1

LYN = molecular target: T29, LYN (Homo sapiens, UniProt P07948)
T29 construct: purchased Ambit (DiscoverX) KINOMEscan; Cerep
Procedure, shortened: as §1

SBK1 = molecular target: T30, SBK1 (Homo sapiens, UniProt Q52WX2)
T30 construct: purchased Ambit (DiscoverX) KINOMEscan; Cerep
Procedure, shortened: as §1

IRAK1 = molecular target: T31, IRAK1 (Homo sapiens, UniProt P51617)
T31 construct: purchased Ambit (DiscoverX) KINOMEscan; Cerep
Procedure, shortened: as §1

[4] = molecular target: T32, RPS6KA1(Kin.Dom.1-N-term) (Homo sapiens, UniProt Q15418)
T32 construct: RPS6KA1(Kin.Dom.1-N-term); purchased Ambit (DiscoverX) KINOMEscan; Cerep
Procedure, shortened: as §1

T24 sequence (O60674 849-1132 limits assumed): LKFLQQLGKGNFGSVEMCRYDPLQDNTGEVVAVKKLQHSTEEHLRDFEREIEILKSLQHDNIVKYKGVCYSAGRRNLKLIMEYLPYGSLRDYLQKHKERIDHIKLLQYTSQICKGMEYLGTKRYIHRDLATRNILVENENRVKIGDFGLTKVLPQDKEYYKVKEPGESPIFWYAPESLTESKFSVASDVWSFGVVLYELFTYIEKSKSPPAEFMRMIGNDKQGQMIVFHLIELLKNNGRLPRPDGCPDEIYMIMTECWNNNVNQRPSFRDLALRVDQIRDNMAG
T6 sequence (O14730 whole entry): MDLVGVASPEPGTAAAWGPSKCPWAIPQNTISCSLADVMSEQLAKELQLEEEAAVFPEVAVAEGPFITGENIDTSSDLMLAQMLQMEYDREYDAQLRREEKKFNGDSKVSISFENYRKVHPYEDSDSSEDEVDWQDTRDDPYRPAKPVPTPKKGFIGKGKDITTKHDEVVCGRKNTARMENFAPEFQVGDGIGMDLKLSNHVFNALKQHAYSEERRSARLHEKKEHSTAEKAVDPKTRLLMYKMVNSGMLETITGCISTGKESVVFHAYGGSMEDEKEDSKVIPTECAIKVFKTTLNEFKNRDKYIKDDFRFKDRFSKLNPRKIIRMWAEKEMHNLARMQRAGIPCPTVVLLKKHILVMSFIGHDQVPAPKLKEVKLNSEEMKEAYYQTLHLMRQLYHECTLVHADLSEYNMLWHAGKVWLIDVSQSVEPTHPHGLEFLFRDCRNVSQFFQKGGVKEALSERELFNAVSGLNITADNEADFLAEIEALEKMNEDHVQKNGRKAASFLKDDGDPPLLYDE
T13 sequence (O00238 14-502): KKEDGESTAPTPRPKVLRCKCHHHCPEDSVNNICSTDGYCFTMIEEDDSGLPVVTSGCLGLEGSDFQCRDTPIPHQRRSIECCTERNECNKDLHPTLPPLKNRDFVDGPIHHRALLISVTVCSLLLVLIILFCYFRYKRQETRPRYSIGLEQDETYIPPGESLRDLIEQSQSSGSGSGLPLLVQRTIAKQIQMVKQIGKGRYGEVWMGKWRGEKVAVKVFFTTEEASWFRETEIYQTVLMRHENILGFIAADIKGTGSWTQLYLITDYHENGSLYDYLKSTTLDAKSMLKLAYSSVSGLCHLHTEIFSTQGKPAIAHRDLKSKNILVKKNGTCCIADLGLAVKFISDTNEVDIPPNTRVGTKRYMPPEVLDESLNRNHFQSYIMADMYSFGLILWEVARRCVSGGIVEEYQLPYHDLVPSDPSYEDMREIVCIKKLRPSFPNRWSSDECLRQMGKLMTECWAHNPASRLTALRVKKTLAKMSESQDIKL
T32 sequence (Q15418 62-321 limits assumed): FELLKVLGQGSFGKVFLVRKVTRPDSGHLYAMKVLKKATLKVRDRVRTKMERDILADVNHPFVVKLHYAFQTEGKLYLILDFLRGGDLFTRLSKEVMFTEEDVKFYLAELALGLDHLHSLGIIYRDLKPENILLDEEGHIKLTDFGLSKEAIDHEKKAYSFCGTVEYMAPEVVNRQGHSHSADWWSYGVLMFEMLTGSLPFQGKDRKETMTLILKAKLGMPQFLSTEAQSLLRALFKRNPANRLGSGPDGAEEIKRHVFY
T25 sequence (P23458 583-855 limits assumed): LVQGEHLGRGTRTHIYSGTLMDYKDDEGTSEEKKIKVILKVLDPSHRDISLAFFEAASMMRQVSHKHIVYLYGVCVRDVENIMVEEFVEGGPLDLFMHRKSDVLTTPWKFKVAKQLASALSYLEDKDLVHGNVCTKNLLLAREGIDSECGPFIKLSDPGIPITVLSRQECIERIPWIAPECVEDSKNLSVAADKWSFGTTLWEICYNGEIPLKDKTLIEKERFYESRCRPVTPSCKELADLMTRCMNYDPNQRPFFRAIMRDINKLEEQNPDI
T4 sequence (Q9BUB5 whole entry): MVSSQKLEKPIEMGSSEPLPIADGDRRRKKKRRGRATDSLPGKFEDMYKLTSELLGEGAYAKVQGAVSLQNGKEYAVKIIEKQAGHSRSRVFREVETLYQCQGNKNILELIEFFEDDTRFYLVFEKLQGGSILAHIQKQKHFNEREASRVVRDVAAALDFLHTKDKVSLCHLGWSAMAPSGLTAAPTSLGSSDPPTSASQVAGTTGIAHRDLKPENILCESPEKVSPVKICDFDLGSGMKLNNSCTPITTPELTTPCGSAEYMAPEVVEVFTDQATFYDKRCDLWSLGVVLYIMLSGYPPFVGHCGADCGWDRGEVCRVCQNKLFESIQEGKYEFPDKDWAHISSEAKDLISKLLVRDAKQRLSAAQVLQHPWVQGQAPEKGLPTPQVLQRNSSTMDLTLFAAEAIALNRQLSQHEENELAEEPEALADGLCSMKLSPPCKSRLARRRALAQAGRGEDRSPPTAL
T18 sequence (P20794 whole entry): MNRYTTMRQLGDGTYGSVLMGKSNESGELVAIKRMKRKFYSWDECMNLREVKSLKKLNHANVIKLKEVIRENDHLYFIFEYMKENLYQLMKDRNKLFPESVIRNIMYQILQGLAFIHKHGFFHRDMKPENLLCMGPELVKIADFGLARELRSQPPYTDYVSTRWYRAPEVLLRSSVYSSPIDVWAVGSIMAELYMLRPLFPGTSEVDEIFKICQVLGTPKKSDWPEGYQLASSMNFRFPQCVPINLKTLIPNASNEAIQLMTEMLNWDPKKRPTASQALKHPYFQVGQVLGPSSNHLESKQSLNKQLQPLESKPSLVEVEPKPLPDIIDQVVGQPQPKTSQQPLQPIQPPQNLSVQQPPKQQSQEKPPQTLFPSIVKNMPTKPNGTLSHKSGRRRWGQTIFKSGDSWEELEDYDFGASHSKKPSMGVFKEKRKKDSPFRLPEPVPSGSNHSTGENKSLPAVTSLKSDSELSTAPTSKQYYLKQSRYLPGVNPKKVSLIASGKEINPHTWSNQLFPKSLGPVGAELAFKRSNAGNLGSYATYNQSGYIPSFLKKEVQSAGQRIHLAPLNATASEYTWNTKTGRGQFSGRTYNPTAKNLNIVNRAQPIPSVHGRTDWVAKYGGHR
T8 sequence (O95835 whole entry): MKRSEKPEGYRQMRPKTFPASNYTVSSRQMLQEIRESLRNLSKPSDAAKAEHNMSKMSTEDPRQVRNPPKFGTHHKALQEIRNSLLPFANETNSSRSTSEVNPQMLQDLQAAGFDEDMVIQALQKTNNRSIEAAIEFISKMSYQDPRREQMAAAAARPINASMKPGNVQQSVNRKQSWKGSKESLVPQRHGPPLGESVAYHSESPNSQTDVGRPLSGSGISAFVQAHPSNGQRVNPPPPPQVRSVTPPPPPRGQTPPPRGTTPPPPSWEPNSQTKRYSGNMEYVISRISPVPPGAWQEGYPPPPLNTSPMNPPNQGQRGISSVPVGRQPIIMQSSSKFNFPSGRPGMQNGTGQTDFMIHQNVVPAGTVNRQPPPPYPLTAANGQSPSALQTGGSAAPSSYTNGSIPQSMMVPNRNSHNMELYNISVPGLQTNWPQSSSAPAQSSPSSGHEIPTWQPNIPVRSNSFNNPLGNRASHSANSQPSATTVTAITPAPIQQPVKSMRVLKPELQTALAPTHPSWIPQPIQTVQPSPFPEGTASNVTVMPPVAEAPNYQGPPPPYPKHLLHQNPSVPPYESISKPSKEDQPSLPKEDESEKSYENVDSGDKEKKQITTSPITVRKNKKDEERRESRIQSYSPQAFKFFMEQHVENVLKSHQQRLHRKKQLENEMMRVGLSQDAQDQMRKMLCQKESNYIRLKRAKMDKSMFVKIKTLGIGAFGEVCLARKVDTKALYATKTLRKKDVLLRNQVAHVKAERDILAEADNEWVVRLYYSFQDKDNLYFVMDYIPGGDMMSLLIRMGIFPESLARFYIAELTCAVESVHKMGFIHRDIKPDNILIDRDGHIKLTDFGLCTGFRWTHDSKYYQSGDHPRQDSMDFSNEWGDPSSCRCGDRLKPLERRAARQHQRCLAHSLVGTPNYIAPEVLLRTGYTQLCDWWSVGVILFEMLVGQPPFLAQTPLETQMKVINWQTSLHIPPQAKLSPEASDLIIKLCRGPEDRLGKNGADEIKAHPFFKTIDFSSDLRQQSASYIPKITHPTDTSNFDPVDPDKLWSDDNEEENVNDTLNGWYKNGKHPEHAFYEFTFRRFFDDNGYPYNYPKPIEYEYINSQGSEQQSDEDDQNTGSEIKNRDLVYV
T7 sequence (P37023 22-503): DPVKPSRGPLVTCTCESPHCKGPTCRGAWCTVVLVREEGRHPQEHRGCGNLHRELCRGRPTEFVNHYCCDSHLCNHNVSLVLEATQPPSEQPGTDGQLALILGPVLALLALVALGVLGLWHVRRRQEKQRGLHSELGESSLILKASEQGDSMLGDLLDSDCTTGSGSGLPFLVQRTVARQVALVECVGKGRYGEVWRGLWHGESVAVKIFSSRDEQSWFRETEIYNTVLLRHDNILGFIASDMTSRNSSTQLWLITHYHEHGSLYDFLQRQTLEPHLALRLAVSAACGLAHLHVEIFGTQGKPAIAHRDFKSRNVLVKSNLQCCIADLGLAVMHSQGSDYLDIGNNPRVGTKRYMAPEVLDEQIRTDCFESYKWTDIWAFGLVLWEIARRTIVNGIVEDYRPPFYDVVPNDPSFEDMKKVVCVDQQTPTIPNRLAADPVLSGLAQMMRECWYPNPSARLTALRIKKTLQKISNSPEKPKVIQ
T27 sequence (P36507 whole entry): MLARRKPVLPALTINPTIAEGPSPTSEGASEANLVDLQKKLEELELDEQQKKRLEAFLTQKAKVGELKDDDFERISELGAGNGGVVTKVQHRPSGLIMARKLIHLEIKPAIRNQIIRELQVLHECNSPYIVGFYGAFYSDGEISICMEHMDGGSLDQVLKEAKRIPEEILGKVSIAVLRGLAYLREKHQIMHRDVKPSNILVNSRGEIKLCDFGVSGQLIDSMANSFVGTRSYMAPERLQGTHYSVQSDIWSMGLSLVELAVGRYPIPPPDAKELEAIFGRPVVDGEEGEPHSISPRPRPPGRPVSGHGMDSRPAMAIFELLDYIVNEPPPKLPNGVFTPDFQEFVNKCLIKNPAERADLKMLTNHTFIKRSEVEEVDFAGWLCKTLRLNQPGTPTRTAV

**Q.** What does the source list for CCCCN1CCN(C(=N)c2cccc(NC(=O)Nc3ccc(S(=O)(=O)NCc4ccc(S(N)(=O)=O)cc4)cc3)c2)CC1 [SC81458, 4-(3-(3-((4-butylpiperazin-1-yl)(imino)methyl)phenyl)ureido)-N-(4-sulfamoylbenzyl) benzenesulfonamide]?
**A.** remaining binding at 10 µM (YANK2): 99%; remaining binding at 10 µM (PCTk3): 98%; remaining binding at 10 µM (VEGFR2): 84%; remaining binding at 10 µM (MKNK1): 71%; remaining binding at 10 µM (DYRK2): 100%; remaining binding at 10 µM (RIOK3): 77%; remaining binding at 10 µM (ACVRL1): 72%; remaining binding at 10 µM (LATS1): 82%; remaining binding at 10 µM (NDR2): 100%; remaining binding at 10 µM (ERBB3): 81%; remaining binding at 10 µM (PIK3Cb): 70%; remaining binding at 10 µM (LZK): 100%; remaining binding at 10 µM (BMPR1b): 85%; remaining binding at 10 µM (CSNK2a1): 62%; remaining binding at 10 µM (MAP3K3): 100%; remaining binding at 10 µM (EPHA5): 100%; remaining binding at 10 µM (ERK3): 100%; remaining binding at 10 µM (MAK): 91%; remaining binding at 10 µM (PIK3CA(E545K)): 100%; remaining binding at 10 µM (DCAMKL3): 62%; remaining binding at 10 µM (PRKCQ): 100%; remaining binding at 10 µM (TXK): 87%; remaining binding at 10 µM [1]: 100%; remaining binding at 10 µM [2]: 100%; remaining binding at 10 µM [3]: 89%; remaining binding at 10 µM (MKNK2): 100%; remaining binding at 10 µM (MEK2): 100%; remaining binding at 10 µM (TLK2): 97%; remaining binding at 10 µM (LYN): 97%; remaining binding at 10 µM (SBK1): 72%; remaining binding at 10 µM (IRAK1): 95%; remaining binding at 10 µM [4]: 100%
